Consider 13 compounds from PubChem BioAssay AID248 (DTP/NCI, 2004).

Where “and” joins values, the source holds several entries; their conditions need not be identical. Identical values can stand only once. Inconclusive results and toxic doses are left out.

The test system of this experiment is L1210 leukemia ip in BDF1 mice, survival T/C. The experiment can be described thus: NCI In Vivo Anticancer Drug Screen. Data for tumor model L1210 Leukemia (intraperitoneal) in B6D2F1 (BDF1) mice. The following applies: higher = longer survival. In a few lines:
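Survival endpoint. Drug-treated group vs vehicle group, expressed as T divided by C. Tumor passaged by transplantation.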

Where [1] appears, read: endpoint: mean survival time, dose: 100.0 mg/kg/injection, schedule: Q01DX009 (ip), vehicle: Klucel (hydroxypropylcellulose) (HPC).
The mark [2] stands for this setting: endpoint: mean survival time, dose: 100.0 mg/kg/injection, schedule: Q04DX003 (ip), vehicle: Klucel (hydroxypropylcellulose) (HPC).
Where [3] appears, read: endpoint: mean survival time, dose: 200.0 mg/kg/injection, schedule: Q01DX009 (ip), vehicle: Klucel (hydroxypropylcellulose) (HPC).
Where [4] appears, read: endpoint: mean survival time, dose: 200.0 mg/kg/injection, schedule: Q04DX003 (ip), vehicle: Klucel (hydroxypropylcellulose) (HPC).
Setting [5] is: endpoint: mean survival time, dose: 400.0 mg/kg/injection, schedule: Q01DX009 (ip), vehicle: Klucel (hydroxypropylcellulose) (HPC).
The mark [6] stands for this setting: endpoint: mean survival time, dose: 400.0 mg/kg/injection, schedule: Q04DX003 (ip), vehicle: Klucel (hydroxypropylcellulose) (HPC).
[7] abbreviates: endpoint: mean survival time, dose: 100.0 mg/kg/injection, schedule: Q01DX001 (ip), vehicle: carboxymethylcellulose (CMC).
Where [8] appears, read: endpoint: mean survival time, dose: 100.0 mg/kg/injection, schedule: Q01DX009 (ip), vehicle: saline with Tween-80.
Where [9] appears, read: endpoint: mean survival time, dose: 200.0 mg/kg/injection, schedule: Q01DX009 (ip), vehicle: saline with Tween-80.

With `COc1ccccc1/C=c1\[nH]c(=O)/c(=C/c2ccccc2OC)[nH]c1=O`, the T/C by setting is: under setting [1], 88 % of control; under setting [2], 101 % of control; under setting [3], 86 % of control; under setting [4], 101 % of control; under setting [5], 86 % of control; under setting [6], 98 % of control.

Consider `COc1ccc2c(C)[n+]3ccc4cc(OC)c(OC)cc4c3cc2c1` (tested in a mixture with another compound), for which the T/C was 120 % of control (endpoint: mean survival time, dose: 2.5 mg/kg/injection, schedule: Q01DX009 (ip), vehicle: saline); 121 % of control (endpoint: mean survival time, dose: 5.0 mg/kg/injection, schedule: Q01DX009 (ip), vehicle: saline); 117 % of control (endpoint: mean survival time, dose: 6.25 mg/kg/injection, schedule: Q01DX009 (ip), vehicle: saline); 121 % of control (endpoint: mean survival time, dose: 12.5 mg/kg/injection, schedule: Q01DX009 (ip), vehicle: saline); 110 % of control (endpoint: mean survival time, dose: 15.0 mg/kg/injection, schedule: Q01DX009 (ip), vehicle: saline); 123 % of control (endpoint: mean survival time, dose: 20.0 mg/kg/injection, schedule: Q01DX009 (ip), vehicle: saline). In addition, the T/C reads like this: (endpoint: mean survival time, dose: 25.0 mg/kg/injection, schedule: Q01DX009 (ip), vehicle: saline) 123 % of control; (endpoint: mean survival time, dose: 40.0 mg/kg/injection, schedule: Q01DX009 (ip), vehicle: saline) 124 % of control; (endpoint: mean survival time, dose: 50.0 mg/kg/injection, schedule: Q01DX009 (ip), vehicle: saline) 115 % of control; (endpoint: mean survival time, dose: 80.0 mg/kg/injection, schedule: Q01DX009 (ip), vehicle: saline) 105 % of control; (endpoint: mean survival time, dose: 100.0 mg/kg/injection, schedule: Q01DX009 (ip), vehicle: saline) 115 % of control; (endpoint: mean survival time, dose: 108.0 mg/kg/injection, schedule: Q01DX009 (ip), vehicle: saline) 100 % of control.

Regarding `Cc1cc(CC#N)c(CC#N)cc1C`, the T/C (endpoint: mean survival time, dose: 50.0 mg/kg/injection, schedule: Q01DX001 (ip), vehicle: carboxymethylcellulose (CMC)) is 110 % of control; the T/C (endpoint: mean survival time, dose: 50.0 mg/kg/injection, schedule: Q01DX009 (ip), vehicle: carboxymethylcellulose (CMC)) is 96 % of control and 117 % of control; the T/C (endpoint: mean survival time, dose: 50.0 mg/kg/injection, schedule: Q04DX002 (ip), vehicle: carboxymethylcellulose (CMC)) was 94 % of control and 102 % of control; the T/C (endpoint: mean survival time, dose: 50.0 mg/kg/injection, schedule: Q04DX003 (ip), vehicle: carboxymethylcellulose (CMC)) is 98 % of control; the T/C under setting [7] was 97 % of control; the T/C (endpoint: mean survival time, dose: 100.0 mg/kg/injection, schedule: Q01DX009 (ip), vehicle: carboxymethylcellulose (CMC)) was 100 % of control and 106 % of control. Also, the T/C is 102 % of control and 105 % of control (endpoint: mean survival time, dose: 100.0 mg/kg/injection, schedule: Q04DX002 (ip), vehicle: carboxymethylcellulose (CMC)); 95 % of control (endpoint: mean survival time, dose: 100.0 mg/kg/injection, schedule: Q04DX003 (ip), vehicle: carboxymethylcellulose (CMC)); 96 % of control (endpoint: mean survival time, dose: 200.0 mg/kg/injection, schedule: Q01DX009 (ip), vehicle: carboxymethylcellulose (CMC)); 97 % of control and 107 % of control (endpoint: mean survival time, dose: 200.0 mg/kg/injection, schedule: Q04DX002 (ip), vehicle: carboxymethylcellulose (CMC)).

Take `COc1ccc([N+](=O)[O-])cc1NS(=O)(=O)c1cccc([N+](=O)[O-])c1`: the T/C was 95 % of control (endpoint: mean survival time, dose: 100.0 mg/kg/injection, schedule: Q01DX001 (ip), vehicle: saline with Tween-80); 89 % of control and 92 % of control under setting [8]; 97 % of control and 101 % of control (endpoint: mean survival time, dose: 100.0 mg/kg/injection, schedule: Q04DX002 (ip), vehicle: saline with Tween-80); 97 % of control (endpoint: mean survival time, dose: 100.0 mg/kg/injection, schedule: Q04DX003 (ip), vehicle: saline with Tween-80); 91 % of control (endpoint: mean survival time, dose: 200.0 mg/kg/injection, schedule: Q01DX001 (ip), vehicle: saline with Tween-80); 92 % of control under setting [9]. Moreover, the T/C by setting is: (endpoint: mean survival time, dose: 200.0 mg/kg/injection, schedule: Q04DX002 (ip), vehicle: saline with Tween-80) 95 % of control and 97 % of control; (endpoint: mean survival time, dose: 200.0 mg/kg/injection, schedule: Q04DX003 (ip), vehicle: saline with Tween-80) 97 % of control; (endpoint: mean survival time, dose: 400.0 mg/kg/injection, schedule: Q01DX001 (ip), vehicle: saline with Tween-80) 91 % of control; (endpoint: mean survival time, dose: 400.0 mg/kg/injection, schedule: Q01DX009 (ip), vehicle: saline with Tween-80) 106 % of control; (endpoint: mean survival time, dose: 400.0 mg/kg/injection, schedule: Q04DX002 (ip), vehicle: saline with Tween-80) 94 % of control and 101 % of control; (endpoint: mean survival time, dose: 400.0 mg/kg/injection, schedule: Q04DX003 (ip), vehicle: saline with Tween-80) 90 % of control.

As for `CC1(C)OC2OC(C(O)CN3CC3)C(O)C2O1` (centres undefined), the T/C runs as follows: (endpoint: mean survival time, dose: 24.6 mg/kg/injection, schedule: Q01DX Z (ip), vehicle: methylcellulose (MC)) 104 % of control; (endpoint: mean survival time, dose: 37.0 mg/kg/injection, schedule: Q01DX Z (ip), vehicle: methylcellulose (MC)) 107 % of control; (endpoint: mean survival time, dose: 56.0 mg/kg/injection, schedule: Q01DX Z (ip), vehicle: methylcellulose (MC)) 99 % of control; (endpoint: mean survival time, dose: 84.0 mg/kg/injection, schedule: Q01DX Z (ip), vehicle: methylcellulose (MC)) 107 % of control.

For the compound `CC(C)[Si](F)(c1ccc(Br)cc1)C(C)C`, the T/C was 103 % of control under setting [8] and 95 % of control under setting [9].

For the compound `COC(=O)CC(c1ccc2c(c1)OCO2)N1CCOCC1` (centres undefined), the T/C is, setting by setting: (endpoint: mean survival time, dose: 100.0 mg/kg/injection, schedule: Q01DX001 (ip), vehicle: saline) 119 % of control; (endpoint: mean survival time, dose: 200.0 mg/kg/injection, schedule: Q01DX001 (ip), vehicle: saline) 113 % of control; (endpoint: mean survival time, dose: 400.0 mg/kg/injection, schedule: Q01DX001 (ip), vehicle: saline) 104 % of control.

On to `CC1OC(O[C@@H]2C=C3CC[C@@H]4[C@H](CC[C@]5(C)[C@@H](c6ccc(=O)oc6)CC[C@]45O)[C@@]3(C)CC2)C(O)C(O)C1O` (some centres undefined), for which, under “endpoint: mean survival time, dose: 10.0 mg/kg/injection, schedule: Q01DX001 (ip), vehicle: saline”, the T/C is 101 % of control.

In the case of `O=[N+]([O-])c1ccccc1Nc1ccccc1`, the T/C by setting is: under setting [7], 91 % of control; (endpoint: mean survival time, dose: 200.0 mg/kg/injection, schedule: Q01DX001 (ip), vehicle: carboxymethylcellulose (CMC)) 89 % of control; (endpoint: mean survival time, dose: 400.0 mg/kg/injection, schedule: Q01DX001 (ip), vehicle: carboxymethylcellulose (CMC)) 91 % of control.

In the case of `CCNC(=S)Nc1cccc(C)c1`, the T/C is, setting by setting: (endpoint: mean survival time, dose: 25.0 mg/kg/injection, schedule: Q04DX002 (ip), vehicle: gum acacia) 102 % of control; (endpoint: mean survival time, dose: 50.0 mg/kg/injection, schedule: Q04DX002 (ip), vehicle: gum acacia) 97 % of control; (endpoint: mean survival time, dose: 100.0 mg/kg/injection, schedule: Q04DX002 (ip), vehicle: gum acacia) 97 % of control; (endpoint: mean survival time, dose: 200.0 mg/kg/injection, schedule: Q04DX002 (ip), vehicle: gum acacia) 89 % of control.

With `CCN(c1ccccc1C)S(=O)(=O)c1ccccc1`, the T/C was 109 % of control under setting [1]; 103 % of control under setting [2]; 101 % of control under setting [3]; 93 % of control under setting [4]; 87 % of control under setting [5]; 95 % of control under setting [6].

As to `CC12CCC(O)CC1CCC1C3CC/C(=C\c4ccco4)C(=O)C3CCC12` (centres undefined), the T/C was 105 % of control (endpoint: mean survival time, dose: 50.0 mg/kg/injection, schedule: Q01DX001 (sc), vehicle: steriod suspending solution); 89 % of control (endpoint: mean survival time, dose: 100.0 mg/kg/injection, schedule: Q01DX001 (sc), vehicle: steriod suspending solution); 91 % of control (endpoint: mean survival time, dose: 200.0 mg/kg/injection, schedule: Q01DX001 (sc), vehicle: steriod suspending solution).

As for `CC1CC(C)(C)C(C[NH-])C1[NH-].[Cl][Pt+2][Cl]` (centres undefined), the T/C by setting is: (endpoint: median survival time, dose: 7.5 mg/kg/injection, schedule: Q01DX009 (ip), vehicle: saline) 189 % of control; (endpoint: median survival time, dose: 15.0 mg/kg/injection, schedule: Q01DX001 (ip), vehicle: saline) 173 % of control; (endpoint: median survival time, dose: 15.0 mg/kg/injection, schedule: Q01DX009 (ip), vehicle: saline) 205 % of control; (endpoint: median survival time, dose: 30.0 mg/kg/injection, schedule: Q01DX001 (ip), vehicle: saline) 189 % of control; (endpoint: median survival time, dose: 30.0 mg/kg/injection, schedule: Q01DX009 (ip), vehicle: saline) 105 % of control; (endpoint: median survival time, dose: 60.0 mg/kg/injection, schedule: Q01DX001 (ip), vehicle: saline) 154 % of control. Besides, the T/C runs as follows: (endpoint: median survival time, dose: 60.0 mg/kg/injection, schedule: Q01DX009 (ip), vehicle: saline) 87 % of control; (endpoint: median survival time, dose: 120.0 mg/kg/injection, schedule: Q01DX001 (ip), vehicle: saline) 209 % of control.
